We go through two compounds from US8889878B2, “Haloalky-substituted amides as insecticides and acaricides” (Bayer CropScience AG, priority 2009, dated 2014).

SMILES strings stand for the structures.

Data set [1] concerns Boophilus microplus. As to the kind of experiment: Boophilus microplus test (BOOPMI injection), Example 1. The conditions noted are these: application rate 20 μg/animal, injected into abdomen, after 7 days. The class given is in vivo. In short, it runs like this:
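Compound in DMSO, diluted with water, injected into the abdomen of engorged ticks, which were then held in a climate-controlled room. Efficacy was scored after 7 days from fertile egg laying, with 100% meaning no tick laid fertile eggs.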

The next data set relates to Ctenocephalides felis. As to the kind of experiment: Ctenocephalides felis oral (CTECFE), Example 2. The following applies: application rate 20 ppm in citrated cow's blood, after 2 days. It counts as in vivo. Summed up: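 Compound in DMSO diluted into citrated cow's blood, offered to 20 unfed adult C. felis through a Parafilm membrane. Kill rate (%) scored after 2 days; 100% means all fleas dead.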

The subject of another data set is Lucilia cuprina larvae. As to the kind of experiment: Lucilia cuprina test (LUCICU), Example 3. It counts as in vivo. The following applies: application rate 20 ppm, treated horsemeat, after 2 days. In short, it runs like this:
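Horsemeat treated with a water dilution of a DMSO formulation of active ingredient was populated with Lucilia cuprina larvae. Kill rate in % read after 2 days; 100% means all larvae killed, 0% none.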

The subject of data set [2] is Musca domestica adults. As to the kind of experiment: Musca domestica test (MUSCDO), Example 4. The following applies: application rate 20 ppm, treated sponge, after 2 days. It counts as in vivo. As to the method: Musca domestica Test (MUSCDO) • Solvent: dimethyl sulphoxide To prepare an active ingredient formulation, 10 mg of active ingredient are mixed with 0.5 ml of dimethyl sulphoxide, and the concentrate is diluted with water to the desired concentration. Vessels containing a sponge which has been treated with the active ingredient formulation of the desired concentration are populated with Musca domestica adults. After 2 days, the kill rate in % is determined. 100% means that all flies were killed; 0% means that no flies were killed.

In data set [3] the test system is Boophilus microplus. The data set can be described thus: Boophilus microplus test (BOOPMI injection), Example 11. The class given is in vivo. The following applies: application rate 20 μg/animal, injected into abdomen, after 7 days. In short, it runs like this:
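Efficacy rated from fertile egg laying: 100% means none of the ticks laid fertile eggs, read after 7 days. Compound, dissolved and diluted in DMSO, was delivered by abdominal injection, and ticks were kept in dishes under climate control.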

Data set [4] deals with Musca domestica adults. The data set can be described thus: Musca domestica test (MUSCDO), Example 14. It counts as in vivo. The following applies: application rate 100 ppm, treated sponge, after 2 days. Summed up:
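Compound dissolved in DMSO and diluted in water to the test concentration, then applied to a sponge in vessels holding adult flies. Percent kill scored after 2 days (100% = all flies dead).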

The nature of data set [5]: logP by HPLC on reverse-phase column (EEC Directive 79/831 Annex V.A8). The conditions noted are these: HPLC-MS. It counts as physicochemical. Here is the method: The logP values reported in the above Tables and Preparation Examples were determined according to EEC Directive 79/831 Annex V.A8 by HPLC (High Performance Liquid Chromatography) on a reverse-phase column (C18). Temperature 43° C.

Data set [6] has as its system Tick nymphs (Amblyomma hebraeum). As to the kind of experiment: Amblyomma hebaraeum test (AMBYHE), Example 9. The conditions noted are these: application rate 100 ppm, immersed one minute, after 42 days. It counts as in vivo. As to the method:
Amblyomma hebaraeum Test (AMBYHE) • Solvent: dimethyl sulphoxide To prepare an appropriate active ingredient formulation, 10 mg of active ingredient are mixed with 0.5 ml of dimethyl sulphoxide, and the concentrate is diluted with water to the desired concentration. Tick nymphs (Amblyomma hebraeum) are placed into perforated plastic cups and immersed in the desired concentration for one minute. The ticks are transferred onto filter papers in a Petri dish and stored in a climate-controlled cabinet. After 42 days, the kill rate in % is determined. 100% means that all ticks were killed; 0% means that no ticks were killed.

Data set [7] deals with Boophilus microplus females of the SP-resistant Parkhurst strain. As to the kind of experiment: Boophilus microplus test (DIP), Example 10. The class given is in vivo. The following applies: application rate 100 ppm, after 7 days. As to the method: Boophilus microplus Test (DIP)
Test animals: adult engorged Boophilus microplus females of the SP-resistant Parkhurst strain • Solvent: dimethyl sulphoxide
10 mg of active ingredient are dissolved in 0.5 ml of dimethyl sulphoxide. For the purpose of preparing a suitable formulation, the active ingredient solution is diluted with water to the concentration desired in each case.
This active ingredient formulation is pipetted into tubes. 8-10 ticks are transferred into a further tube with holes. The tube is immersed into the active ingredient formulation, and all ticks are completely wetted. After the liquid has run out, the ticks are transferred onto filter discs in plastic dishes and stored in a climate-controlled room. The efficacy is assessed after 7 days by the number of fertile eggs laid. Eggs whose fertility is not outwardly visible are stored in glass tubes in a climate-controlled cabinet until the larvae hatch. Efficacy of 100% means that none of the ticks has laid any fertile eggs.

The test system of data set [8] is armyworm (Spodoptera frugiperda). As to the kind of experiment: Spodoptera frugiperda test (SPODFR spray treatment), Example 15. The class given is in vivo. The following applies: application rate 100 g/ha, maize leaf discs sprayed, after 7 days. In short, it runs like this: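 Caterpillars placed on dried, sprayed Zea mays leaf discs; formulation of acetone, dimethylformamide and emulsifier diluted with emulsifier-containing water to test concentration. Percent kill scored on day 7.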

For data set [9], the system named is green peach aphid (Myzus persicae). The data set can be described thus: Myzus test (MYZUPE spray treatment), Example 17. It counts as in vivo. The conditions noted are these: application rate 100 g/ha, china cabbage leaf discs sprayed, after 6 days. In short, it runs like this: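 Efficacy recorded at 6 days as % kill, where 100% means every aphid dead and 0% none. Spray applied to Brassica pekinensis leaf discs bearing mixed-stage aphids; active ingredient dissolved in acetone with dimethylformamide and emulsifier, then diluted with emulsifier-containing water.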

Regarding `CC(NC(=O)c1ccc(/C=C/C(=O)NC(c2cccc(C(F)(F)F)c2)C(F)(F)F)cc1C(F)(F)F)C(F)(F)F` (centres unmarked) [Ia-30], the “efficacy in % (fertile eggs laid)” value with Boophilus microplus [1] and in the data set on Boophilus microplus [3] was 100% each time. For the same compound, the “kill rate in % (efficacy)” value in the data set with Ctenocephalides felis amounted to 100%; with Lucilia cuprina larvae it was 100%; in the data set on Musca domestica adults [2], 85%; in the data set on Musca domestica adults [4] it was 100%. Besides, the logP entry in data set [5] was “HPLC-MS: logP = 3.58; mass”.

Consider `C#CC(C)NC(=O)c1ccc(/C=C/C(=O)NC(c2cccc(C(F)(F)F)c2)C(F)(F)F)cc1Cl` (centres unmarked) [Ia-161], for which the entries for the “kill rate in % (efficacy)” value (in [6]; in the data set with Musca domestica adults [4]) were 100% and 80%, respectively. The “efficacy in % (fertile eggs laid)” value in data set [7] was 98%; in the data set with Boophilus microplus [3], 100%. Moreover, the efficacy in % in data set [8] came out at 100%; in data set [9] it was 90%. Further, the logP entry in [5] is “HPLC-MS: logP = 3.43; mass”.
